Data as given in patent US11014902B2, “MYC G-quadruplex stabilizing small molecules and their use” (The United States of America, as represented by the …, priority 2015, dated 2021).

Assays:
[1] = tested on: c-MYC exon 1 transcription in CA46 cells; test: Exon specific qPCR assay, exon 1; type: cell-based, human; settings: 10 μM, up to 48 hours
Text: (§1) To confirm a G4 specific mechanism of action in cells, the CA46 Burkitt's Lymphoma line was used in an exon-specific assay, as previously reported (Boddupally, et al., J Med Chem 2012, 55, 6076). For most cell lines, 85-90% of c-Myc expression is controlled by the G4 located prior to exons 1 and 2 in the promoter. Furthermore, expression predominantly occurs following exon 2, due to a thousand-fold increase in transcription from this allele (Brown, et al., J Biol Chem 2011, 286, 41018). The CA46 Burkitt's Lymphoma cell line is an exception to this trend due to the existence of a chromosome (8:14) (Pelicci, et al., Proc Natl Acad Sci USA 1986, 83, 2984) translocation between exons 1 and 2, leaving exon 1 under G4 control. As a result, c-Myc expression from exon 2 is G4 independent (FIG. 3B). This renders the overall cell line resistant to G4-mediated c-Myc inhibition at the RNA and protein level, and proliferation should be uninhibited by G4-stabilizing agents.
(§2) CA46 cells were treated with ligands of interest or DMSO control at designated time points, washed in PBS, flash frozen, and RNA isolated using the Qiagen RNeasy Kit. RNA was quantified by NanoDrop, and 0.5 μg was reverse transcribed for use in qPCR. […]

[2] = tested on: c-MYC exon 2 transcription in CA46 cells; test: Exon specific qPCR assay, exon 2; type: cell-based, human; settings: 10 μM, up to 48 hours
Text: as §1, §2

OVCAR-4 = test: NCI-60 cell growth (SRB); type: cell-based; settings: OVCAR-4, Ovarian Cancer; 10 μM, 48 hours
Procedure: (§3) This example illustrates that Compounds 1 and 23 can be used in inhibit the growth of c-Myc expressing cancer cell lines in vitro. The NCI-60 panel of cancer cell lines (see Shoemaker, Nat. Rev. Cancer, 6, 813-823, 2006, and dtp.cancer.gov/discovery_development/nci-60/) was assayed for cell growth in the presence of 10 μM Compound 1 or Compound 23 for 48 hours. At 48 hours, the assay was terminated by fixation with TCA and determination of relative cell counts by addition of Sulforhodamine B (SRB, see Alley et al., Cancer Research, 48: 589-601, 1988.). Growth percent was determined by comparison of SRB reading of a duplicate plate of cells taken at the time of compound addition to the SRB reading at the termination of the treatment. The following table provides a summary of the percent of growth of each cell line in the panel compared to control (no treatment), as well as the mean delta and range of percent growth compared to control across the panel of cell lines for each treatment condition.

IGROV1 = test: NCI-60 cell growth (SRB); type: cell-based; settings: IGROV1, Ovarian Cancer; 10 μM, 48 hours
Procedure: as §3

COLO 205 = test: NCI-60 cell growth (SRB); type: cell-based; settings: COLO 205, Colon Cancer; 10 μM, 48 hours
Procedure: as §3

SK-MEL-28 = test: NCI-60 cell growth (SRB); type: cell-based; settings: SK-MEL-28, Melanoma; 10 μM, 48 hours
Procedure: as §3

SNB-75 = test: NCI-60 cell growth (SRB); type: cell-based; settings: SNB-75, CNS Cancer; 10 μM, 48 hours
Procedure: as §3

786-0 = test: NCI-60 cell growth (SRB); type: cell-based; settings: 786-0, Renal Cancer; 10 μM, 48 hours
Procedure: as §3

U251 = test: NCI-60 cell growth (SRB); type: cell-based; settings: U251, CNS Cancer; 10 μM, 48 hours
Procedure: as §3

RPMI-8226 = test: NCI-60 cell growth (SRB); type: cell-based; settings: RPMI-8226, Leukemia; 10 μM, 48 hours
Procedure: as §3

SK-OV-3 = test: NCI-60 cell growth (SRB); type: cell-based; settings: SK-OV-3, Ovarian Cancer; 10 μM, 48 hours
Procedure: as §3

TK-10 = test: NCI-60 cell growth (SRB); type: cell-based; settings: TK-10, Renal Cancer; 10 μM, 48 hours
Procedure: as §3

T-47D = test: NCI-60 cell growth (SRB); type: cell-based; settings: Breast Cancer, 10 μM, 48 hours
Procedure: as §3

OVCAR-8 = test: NCI-60 cell growth (SRB); type: cell-based; settings: OVCAR-8, Ovarian Cancer; 10 μM, 48 hours
Procedure: as §3

NCI-H522 = test: NCI-60 cell growth (SRB); type: cell-based; settings: NCI-H522, Non-Small Cell Lung Cancer; 10 μM, 48 hours
Procedure: as §3

CCRF-CEM = test: NCI-60 cell growth (SRB); type: cell-based; settings: Leukemia, 10 μM, 48 hours
Procedure: as §3

CAKI-1 = test: NCI-60 cell growth (SRB); type: cell-based; settings: CAKI-1, Renal Cancer; 10 μM, 48 hours
Procedure: as §3

NCI-H23 = test: NCI-60 cell growth (SRB); type: cell-based; settings: NCI-H23, Non-Small Cell Lung Cancer; 10 μM, 48 hours
Procedure: as §3

MDA-MB-468 = test: NCI-60 cell growth (SRB); type: cell-based; settings: MDA-MB-468, Breast Cancer; 10 μM, 48 hours
Procedure: as §3

[3] = tested on: c-Myc protein in H157 cells; test: c-Myc protein expression by Western blot, H157; type: cell-based, human; settings: 10 μM
Procedure: The effect of Compound 23 on the expression of c-Myc protein in the human lung cancer cell lines H1299 and H157 was also assayed. H1299 and H157 cells were treated with 10 μM Compound 23 and c-Myc protein expression levels quantified by Western blot. In Compound 23-treated H1299 cells, c-Myc protein expression levels were approximately 55% compared to untreated control cells. In Compound 23-treated H157 cells, c-Myc protein expression levels were approximately 74% compared to untreated control cells.

| Compound | transcription from exon 1 [1] | transcription from exon 2 [2] | Growth Percent (OVCAR-4) | Growth Percent (IGROV1) | Growth Percent (COLO 205) | Growth Percent (SK-MEL-28) | Growth Percent (SNB-75) | Growth Percent (786-0) | Growth Percent (U251) | Growth Percent (RPMI-8226) | Growth Percent (SK-OV-3) | Growth Percent (TK-10) | Growth Percent (T-47D) | Growth Percent (OVCAR-8) | Growth Percent (NCI-H522) | Growth Percent (CCRF-CEM) | Growth Percent (CAKI-1) | Growth Percent (NCI-H23) | Growth Percent (MDA-MB-468) | c-Myc protein expression levels compared to untreated control cells [3] |
| --- | --- | --- | --- | --- | --- | --- | --- | --- | --- | --- | --- | --- | --- | --- | --- | --- | --- | --- | --- | --- |
| Cc1ccc(NC(=O)c2c(C)oc3ccc(O)c(CN4CCCCCC4)c23)cc1 [Compound 1] | sustained downregulation | unaffected | 82.06% | 81.22% | 104.20% | 96.60% | 78.34% | 84.68% | 88.66% | 91.38% | 100.26% | 92.66% | 92.74% | 89.96% | 90.68% | 87.67% | 75.13% | 90.23% | 73.62% | – |
| Cc1oc2ccc(O)c(CN3CCCCCC3)c2c1C(=O)Nc1ccc(C(F)(F)F)cc1 [Compound 23] | – | – | 58.58% | 54.25% | 48.73% | 76.90% | 50.57% | 49.50% | 55.07% | 75.08% | 76.35% | 81.06% | 73.98% | 66.34% | 72.52% | 65.23% | 50.46% | 69.93% | 5.74% | approximately 74% |
